In patent US9034793B2, “Use of ribose to enhance plant growth” (Bioenergy, Inc., priority 2002, dated 2015):

Tested on: bean seeds
Assay: Plant growth and yield from bean seeds, daylight or darkness (Example 2)
Type: in vivo
Description: Three different treatments were explored on bean seeds to determine the effects of ribose (at two different doses) on plant growth and proliferation. [The three treatments include control (plain water), a 0.1332 M solution of ribose (5 g D-ribose dissolved in 250 ml water), and a 0.0666 M solution of ribose (5 g D-ribose dissolved in 500 ml water)]. The plants were kept under two different conditions, normal daylight and darkness. A total of six plants will be tested, with the conditions that each plant were tested at listed below. Treatments: [table] Each seed was planted under identical conditions (soil and pot size) and all at the same time. The environmental conditions (such as temperature and humidity), except for lighting, were kept constant for all the plants. Once potted, each seed received one to two tablespoons of treatment liquid (as mentioned above). A daily record was kept of the activity of each plant. Watering was done on every other day (or sooner if the soil was deemed too dry by the researcher), each again receiving one tablespoon of treatment liquid. Assessment of the effects of ribose fertilization was determined by measuring the time to the first appearance of a plant from the soil, the rate of growth, and leaf size. Table 3 represents the accumulated plant growth data from Example 2 and FIGS. 3 and 4 are graphic presentations of plant growth during light and dark conditions.

O=C[C@H](O)[C@H](O)[C@H](O)CO [5/250, D-ribose]
Amount of Growth Between Measurements (Dark, Day 0 (17-Sep)): 0
Plant growth-height (Dark, Day 0 (17-Sep)): 0
Rate of Growth Between Measurements (Dark, Day 0 (17-Sep)): 0
Amount of Growth Between Measurements (Dark, Day 3 (20-Sep)): 0
Plant growth-height (Dark, Day 3 (20-Sep)): 0
Rate of Growth Between Measurements (Dark, Day 3 (20-Sep)): 0
Amount of Growth Between Measurements (Dark, Day 5 (22-Sep)): 0
Plant growth-height (Dark, Day 5 (22-Sep)): 0
Rate of Growth Between Measurements (Dark, Day 5 (22-Sep)): 0
Rate of Growth Overall Thru Date (Dark, Day 5 (22-Sep)): 0
Amount of Growth Between Measurements (Dark, Day 7 (24-Sep)): 4.4
Plant growth-height (Dark, Day 7 (24-Sep)): 4.4
Rate of Growth Between Measurements (Dark, Day 7 (24-Sep)): 2.20
Rate of Growth Overall Thru Date (Dark, Day 7 (24-Sep)): 0.63
Amount of Growth Between Measurements (Dark, Day 8 (25-Sep)): 4.1
Plant growth-height (Dark, Day 8 (25-Sep)): 8.5
Rate of Growth Between Measurements (Dark, Day 8 (25-Sep)): 4.10
Rate of Growth Overall Thru Date (Dark, Day 8 (25-Sep)): 1.06
Amount of Growth Between Measurements (Dark, Day 9 (26-Sep)): 4.7
Plant growth-height (Dark, Day 9 (26-Sep)): 13.2
Rate of Growth Between Measurements (Dark, Day 9 (26-Sep)): 4.70
Rate of Growth Overall Thru Date (Dark, Day 9 (26-Sep)): 1.47
Amount of Growth Between Measurements (Dark, Day 10 (27-Sep)): 2.1
Plant growth-height (Dark, Day 10 (27-Sep)): 15.3
Rate of Growth Between Measurements (Dark, Day 10 (27-Sep)): 2.10
Rate of Growth Overall Thru Date (Dark, Day 10 (27-Sep)): 1.53
Amount of Growth Between Measurements (Dark, Day 11 (28-Sep)): 2.3
Plant growth-height (Dark, Day 11 (28-Sep)): 17.6
Rate of Growth Between Measurements (Dark, Day 11 (28-Sep)): 2.30
Rate of Growth Overall Thru Date (Dark, Day 11 (28-Sep)): 1.60
Amount of Growth Between Measurements (Dark, Day 12 (29-Sep)): 2
Plant growth-height (Dark, Day 12 (29-Sep)): 19.6
Rate of Growth Between Measurements (Dark, Day 12 (29-Sep)): 2.00
Rate of Growth Overall Thru Date (Dark, Day 12 (29-Sep)): 1.63
Amount of Growth Between Measurements (Dark, Day 13 (30-Sep)): 1.5
Plant growth-height (Dark, Day 13 (30-Sep)): 21.1
Rate of Growth Between Measurements (Dark, Day 13 (30-Sep)): 1.50
Rate of Growth Overall Thru Date (Dark, Day 13 (30-Sep)): 1.62
Amount of Growth Between Measurements (Dark, Day 16 (3-Oct)): 3.6
Plant growth-height (Dark, Day 16 (3-Oct)): 24.7
Rate of Growth Between Measurements (Dark, Day 16 (3-Oct)): 1.20
Rate of Growth Overall Thru Date (Dark, Day 16 (3-Oct)): 1.54
Amount of Growth Between Measurements (Light, Day 0 (17-Sep)): 0
Plant growth-height (Light, Day 0 (17-Sep)): 0
Rate of Growth Between Measurements (Light, Day 0 (17-Sep)): 0
Amount of Growth Between Measurements (Light, Day 3 (20-Sep)): 0
Plant growth-height (Light, Day 3 (20-Sep)): 0
Rate of Growth Between Measurements (Light, Day 3 (20-Sep)): 0
Amount of Growth Between Measurements (Light, Day 5 (22-Sep)): 1.1
Plant growth-height (Light, Day 5 (22-Sep)): 1.1
Rate of Growth Between Measurements (Light, Day 5 (22-Sep)): 0.55
Rate of Growth Overall Thru Date (Light, Day 5 (22-Sep)): 0.22
Amount of Growth Between Measurements (Light, Day 7 (24-Sep)): 4.4
Plant growth-height (Light, Day 7 (24-Sep)): 5.5
Rate of Growth Between Measurements (Light, Day 7 (24-Sep)): 2.20
Rate of Growth Overall Thru Date (Light, Day 7 (24-Sep)): 0.79
Amount of Growth Between Measurements (Light, Day 8 (25-Sep)): 9.5
Plant growth-height (Light, Day 8 (25-Sep)): 15
Rate of Growth Between Measurements (Light, Day 8 (25-Sep)): 9.50
Rate of Growth Overall Thru Date (Light, Day 8 (25-Sep)): 1.88
Amount of Growth Between Measurements (Light, Day 9 (26-Sep)): 4.1
Plant growth-height (Light, Day 9 (26-Sep)): 19.1
Rate of Growth Between Measurements (Light, Day 9 (26-Sep)): 4.10
Rate of Growth Overall Thru Date (Light, Day 9 (26-Sep)): 2.12
Amount of Growth Between Measurements (Light, Day 10 (27-Sep)): 4
Plant growth-height (Light, Day 10 (27-Sep)): 23.1
Rate of Growth Between Measurements (Light, Day 10 (27-Sep)): 4.00
Rate of Growth Overall Thru Date (Light, Day 10 (27-Sep)): 2.31
Amount of Growth Between Measurements (Light, Day 11 (28-Sep)): 2.6
Plant growth-height (Light, Day 11 (28-Sep)): 25.7
Rate of Growth Between Measurements (Light, Day 11 (28-Sep)): 2.60
Rate of Growth Overall Thru Date (Light, Day 11 (28-Sep)): 2.34
Amount of Growth Between Measurements (Light, Day 12 (29-Sep)): 0.7
Plant growth-height (Light, Day 12 (29-Sep)): 26.4
Rate of Growth Between Measurements (Light, Day 12 (29-Sep)): 0.70
Rate of Growth Overall Thru Date (Light, Day 12 (29-Sep)): 2.20
Amount of Growth Between Measurements (Light, Day 13 (30-Sep)): 0.2
Plant growth-height (Light, Day 13 (30-Sep)): 26.6
Rate of Growth Between Measurements (Light, Day 13 (30-Sep)): 0.20
Rate of Growth Overall Thru Date (Light, Day 13 (30-Sep)): 2.05
Amount of Growth Between Measurements (Light, Day 16 (3-Oct)): 1.7
Plant growth-height (Light, Day 16 (3-Oct)): 28.3
Rate of Growth Between Measurements (Light, Day 16 (3-Oct)): 0.57
Rate of Growth Overall Thru Date (Light, Day 16 (3-Oct)): 1.77
Amount of Growth Between Measurements (Light, Day 19 (6-Oct)): −0.7
Plant growth-height (Light, Day 19 (6-Oct)): 27.6
Rate of Growth Between Measurements (Light, Day 19 (6-Oct)): −0.23
Rate of Growth Overall Thru Date (Light, Day 19 (6-Oct)): 1.45
